The NIST ThermoML archive (doi:10.1021/acs.jced.7b00344)
Numbers after ± are expanded uncertainties.

Experiment: xn = mol fraction of the nth substance listed
Conditions: 101.3 kPa, Liquid; for viscosity: Capillary tube (Ostwald / Ubbelohde) method; for mass density: Pycnometric method

CC(=O)CCCCl [1-chloro-4-pentanone] + CC(=O)C1CC1
Conditions	mass density, 303.15 K [kg/m3]	mass density, 313.15 K [kg/m3]	mass density, 323.15 K [kg/m3]	mass density, 333.15 K [kg/m3]	viscosity, 303.15 K [mPa·s]	viscosity, 313.15 K [mPa·s]	viscosity, 323.15 K [mPa·s]	viscosity, 333.15 K [mPa·s]
x2 = 0	1051.3 ± 1.1	1041.1 ± 1.1	1031.2 ± 1.1	1020.8 ± 1.1	1.582 ± 0.033	1.318 ± 0.028	1.078 ± 0.023	0.9667 ± 0.02
x2 = 0.0998	1039.1 ± 1.1	1029.1 ± 1.1	1019.4 ± 1.1	1009.3 ± 1.1	1.427 ± 0.03	1.21 ± 0.026	1.03 ± 0.022	0.8933 ± 0.019
x2 = 0.2009	1026.1 ± 1.1	1016.3 ± 1.1	1006.7 ± 1.1	996.8 ± 1.1	1.223 ± 0.026	1.043 ± 0.022	0.9043 ± 0.019	0.7927 ± 0.017
x2 = 0.3004	1012.5 ± 1.1	1002.9 ± 1.1	993.4 ± 1.1	983.6 ± 1.1	1.135 ± 0.024	0.9766 ± 0.021	0.8507 ± 0.018	0.7484 ± 0.016
x2 = 0.4002	998 ± 1	988.5 ± 1.1	979.1 ± 1.1	969.5 ± 1.1	1.07 ± 0.023	0.9252 ± 0.02	0.8063 ± 0.017	0.7131 ± 0.015
x2 = 0.4999	982.8 ± 1.1	973.3 ± 1.1	963.9 ± 1.1	954.4 ± 1.1	0.955 ± 0.02	0.8296 ± 0.018	0.7322 ± 0.015	0.6517 ± 0.014
x2 = 0.5999	966.5 ± 1.1	957.1 ± 1.1	947.7 ± 1.1	938.3 ± 1.1	0.8757 ± 0.018	0.7715 ± 0.016	0.6787 ± 0.014	0.6086 ± 0.013
x2 = 0.6999	948.9 ± 1.1	939.7 ± 1.1	930.4 ± 1.1	921.1 ± 1.1	0.839 ± 0.018	0.7366 ± 0.016	0.649 ± 0.014	0.5818 ± 0.012
x2 = 0.7999	930.2 ± 1.1	921 ± 1	911.7 ± 1.1	902.6 ± 1.2	0.7363 ± 0.016	0.6493 ± 0.014	0.5783 ± 0.012	0.5207 ± 0.011
x2 = 0.8999	910.5 ± 1.1	901.1 ± 1.1	891.6 ± 1.1	882.4 ± 1.2	0.7027 ± 0.015	0.6216 ± 0.013	0.5513 ± 0.012	0.4968 ± 0.011

CC(=O)C1CCOC1=O (stereo not given) [2-acetylbutyrolactone] + CC(=O)C1CC1
Conditions	mass density, 303.15 K [kg/m3]	mass density, 313.15 K [kg/m3]	mass density, 323.15 K [kg/m3]	mass density, 333.15 K [kg/m3]	viscosity, 303.15 K [mPa·s]	viscosity, 313.15 K [mPa·s]	viscosity, 323.15 K [mPa·s]	viscosity, 333.15 K [mPa·s]
x2 = 0	1185.7 ± 1.1	1178.3 ± 1.1	1168.9 ± 1.1	1159.4 ± 1.1	3.794 ± 0.079	3.424 ± 0.072	3.067 ± 0.064	2.719 ± 0.057
x2 = 0.0998	1161.9 ± 1.2	1154.3 ± 1.2	1144.9 ± 1.2	1135.6 ± 1.2	3.195 ± 0.068	2.889 ± 0.061	2.609 ± 0.055	2.33 ± 0.049
x2 = 0.2009	1136.2 ± 1.2	1128.5 ± 1.2	1119.1 ± 1.2	1109.7 ± 1.2	2.633 ± 0.056	2.369 ± 0.05	2.118 ± 0.045	1.892 ± 0.04
x2 = 0.3004	1109.7 ± 1.2	1101.8 ± 1.2	1092.3 ± 1.2	1082.9 ± 1.2	2.164 ± 0.046	1.945 ± 0.042	1.748 ± 0.037	1.571 ± 0.034
x2 = 0.4002	1081.9 ± 1.2	1073.7 ± 1.2	1064.2 ± 1.2	1054.8 ± 1.2	1.786 ± 0.038	1.599 ± 0.034	1.415 ± 0.03	1.278 ± 0.027
x2 = 0.4999	1052.8 ± 1.2	1044.3 ± 1.2	1034.8 ± 1.2	1025.4 ± 1.3	1.452 ± 0.031	1.306 ± 0.028	1.154 ± 0.025	1.025 ± 0.022
x2 = 0.5999	1022.5 ± 1.2	1013.8 ± 1.2	1004.2 ± 1.3	994.8 ± 1.3	1.198 ± 0.026	1.054 ± 0.023	0.9344 ± 0.02	0.8398 ± 0.018
x2 = 0.6999	991.1 ± 1.3	982.1 ± 1.3	972.4 ± 1.3	963.1 ± 1.3	0.9813 ± 0.021	0.8642 ± 0.019	0.778 ± 0.017	0.6958 ± 0.015
x2 = 0.7999	958.3 ± 1.3	949.2 ± 1.3	939.6 ± 1.3	930.2 ± 1.3	0.783 ± 0.017	0.6912 ± 0.015	0.639 ± 0.014	0.5704 ± 0.012
x2 = 0.8999	924.5 ± 1.3	915.5 ± 1.3	905.9 ± 1.3	896.5 ± 1.3	0.6546 ± 0.014	0.5854 ± 0.013	0.5436 ± 0.012	0.4933 ± 0.011
